Values joined by “and” are separate entries in the source; they are usually repeats but may differ in a detail not shown here. Equal values may be shown once. Toxic doses and inconclusive results are not listed.

For this assay, the system named is P388 leukemia ip, CD2F1 mice, survival T/C. Put plainly: NCI In Vivo Anticancer Drug Screen. Data for tumor model P388 Leukemia (intraperitoneal) in CD2F1 (CDF1) mice. The following applies: endpoint: median survival time, higher = longer survival. In outline: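 Mice carrying the transplanted tumor received test compound or vehicle. Survival was recorded in each group, and the value is the treated-group measurement divided by that of the vehicle-treated control group.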

[1] abbreviates: dose: 50.0 mg/kg/injection, schedule: Q01DX005 (ip), vehicle: saline with Tween-80.
[2] abbreviates: dose: 100.0 mg/kg/injection, schedule: Q01DX005 (ip), vehicle: saline with Tween-80.
The mark [3] stands for this setting: dose: 200.0 mg/kg/injection, schedule: Q01DX005 (ip), vehicle: saline with Tween-80.
The mark [4] stands for this setting: dose: 50.0 mg/kg/injection, schedule: Q01DX009 (ip), vehicle: Klucel (hydroxypropylcellulose) (HPC).
The mark [5] stands for this setting: dose: 100.0 mg/kg/injection, schedule: Q01DX009 (ip), vehicle: Klucel (hydroxypropylcellulose) (HPC).
Where [6] appears, read: dose: 200.0 mg/kg/injection, schedule: Q01DX009 (ip), vehicle: Klucel (hydroxypropylcellulose) (HPC).
The mark [7] stands for this setting: dose: 50.0 mg/kg/injection, schedule: Q01DX005 (ip), vehicle: Klucel (hydroxypropylcellulose) (HPC).
Where [8] appears, read: dose: 50.0 mg/kg/injection, schedule: Q01DX005 (ip), vehicle: saline.
[9] abbreviates: dose: 100.0 mg/kg/injection, schedule: Q01DX005 (ip), vehicle: Klucel (hydroxypropylcellulose) (HPC).
Where [10] appears, read: dose: 100.0 mg/kg/injection, schedule: Q01DX005 (ip), vehicle: saline.
[11] abbreviates: dose: 200.0 mg/kg/injection, schedule: Q01DX005 (ip), vehicle: saline.
The mark [12] stands for this setting: dose: 25.0 mg/kg/injection, schedule: Q01DX009 (ip), vehicle: saline.

As for `CCCCCc1cc(O)c2c(c1)OC(C)(C)[C@@H]1CCC(C)=C[C@@H]21`, the T/C is, setting by setting: (dose: 1.0 mg/kg/injection, schedule: Q01DX005 (iv), vehicle: other) 100 % of control; (dose: 1.5 mg/kg/injection, schedule: Q02HX016 (oral), vehicle: olive oil, sesame oil, peanut oil) 92 % of control; (dose: 2.0 mg/kg/injection, schedule: Q01DX005 (iv), vehicle: other) 100 % of control; (dose: 3.0 mg/kg/injection, schedule: Q02HX016 (oral), vehicle: olive oil, sesame oil, peanut oil) 92 % of control; (dose: 4.0 mg/kg/injection, schedule: Q01DX005 (iv), vehicle: other) 100 % of control; (dose: 8.0 mg/kg/injection, schedule: Q01DX005 (iv), vehicle: other) 92 % of control. Besides, the T/C was 100 % of control (dose: 16.0 mg/kg/injection, schedule: Q01DX005 (iv), vehicle: other); 109 % of control and 96 % of control (dose: 32.0 mg/kg/injection, schedule: Q01DX005 (iv), vehicle: other); 99 % of control and 100 % of control (dose: 64.0 mg/kg/injection, schedule: Q01DX005 (iv), vehicle: other); 99 % of control (dose: 128.0 mg/kg/injection, schedule: Q01DX005 (iv), vehicle: other); 99 % of control (dose: 256.0 mg/kg/injection, schedule: Q01DX005 (iv), vehicle: other).

`C/C1=C/C2OC(=O)C3(C)C2C(CC2(C)OC1=CC2=O)OC3(O)C(C)C` (centres undefined): the T/C runs as follows: (dose: 10.0 mg/kg/injection, schedule: Q01DX005 (ip), vehicle: saline + alcohol) 100 % of control; (dose: 20.0 mg/kg/injection, schedule: Q01DX005 (ip), vehicle: saline + alcohol) 102 % of control; (dose: 40.0 mg/kg/injection, schedule: Q01DX005 (ip), vehicle: saline + alcohol) 99 % of control; (dose: 80.0 mg/kg/injection, schedule: Q01DX005 (ip), vehicle: saline + alcohol) 109 % of control.

Turning to `CC(C)(C)OC(=O)NC(CCC(N)=O)C(=O)ON1C(=O)CCC1=O` (centres undefined), the T/C by setting is: under setting [1], 98 % of control; under setting [2], 99 % of control; under setting [3], 104 % of control.

Regarding `O=NN(CCCl)C(=O)OCCCSSCCCOC(=O)N(CCCl)N=O`, the T/C (dose: 50.0 mg/kg/injection, schedule: Q01DX009 (ip), vehicle: water) is 120 % of control.

Regarding `O=C1NC(=O)C2(c3ccccc3)CCN1C2=O` (centres undefined), the T/C reads like this: under setting [4], 103 % of control; under setting [5], 110 % of control; under setting [6], 104 % of control.

For the compound `C/C(=N/NC(=S)NNC(=S)N(C)c1ccccc1)c1nccc2ccccc12`, the T/C is, setting by setting: under setting [1], 102 % of control; under setting [2], 101 % of control; under setting [3], 104 % of control.

As to `C1CCC2C(C1)CCC1COCN12` (centres undefined), the T/C (dose: 12.5 mg/kg/injection, schedule: Q01DX005 (ip), vehicle: Klucel (hydroxypropylcellulose) (HPC)) is 98 % of control; the T/C (dose: 12.5 mg/kg/injection, schedule: Q01DX005 (ip), vehicle: saline) is 108 % of control; the T/C (dose: 25.0 mg/kg/injection, schedule: Q01DX005 (ip), vehicle: Klucel (hydroxypropylcellulose) (HPC)) is 100 % of control; the T/C (dose: 25.0 mg/kg/injection, schedule: Q01DX005 (ip), vehicle: saline) is 100 % of control; the T/C under setting [7] was 105 % of control; the T/C under setting [8] is 103 % of control and 119 % of control. Also, the T/C runs as follows: under setting [9], 114 % of control; under setting [10], 118 % of control and 124 % of control; under setting [11], 101 % of control.

As for `O=C1OC(c2ccccc2)(c2ccccc2)c2cc3c(cc21)C(=O)OC3(c1ccccc1)c1ccccc1`, the T/C (dose: 50.0 mg/kg/injection, schedule: Q04DX002 (ip), vehicle: saline) was 102 % of control; the T/C (dose: 100.0 mg/kg/injection, schedule: Q04DX002 (ip), vehicle: saline) was 100 % of control; the T/C (dose: 200.0 mg/kg/injection, schedule: Q04DX002 (ip), vehicle: saline) was 98 % of control.

On to `CCCCC(=O)c1c(O)c2ccccc2oc1=O`, for which the T/C (dose: 15.0 mg/kg/injection, schedule: Q01DX005 (ip), vehicle: saline with Tween-80) is 100 % of control; the T/C (dose: 30.0 mg/kg/injection, schedule: Q01DX005 (ip), vehicle: saline with Tween-80) is 97 % of control; the T/C (dose: 60.0 mg/kg/injection, schedule: Q01DX005 (ip), vehicle: saline with Tween-80) is 116 % of control and 94 % of control.

For the compound `CCN(CCNc1ccc(CO)c2sc3ccccc3c(=O)c12)CC(C)(C)O`, the T/C reads like this: (dose: 265.0 mg/kg/injection, schedule: Q04DX003 (ip), vehicle: saline with Tween-80) 123 % of control; (dose: 400.0 mg/kg/injection, schedule: Q04DX003 (ip), vehicle: saline with Tween-80) 159 % of control; (dose: 600.0 mg/kg/injection, schedule: Q04DX003 (ip), vehicle: saline with Tween-80) 185 % of control.

With `O=[N+]([O-])c1cc(C(F)(F)F)ccc1F`, the T/C is, setting by setting: (dose: 25.0 mg/kg/injection, schedule: Q01DX009 (ip), vehicle: Klucel (hydroxypropylcellulose) (HPC)) 106 % of control; under setting [4], 106 % of control.

Regarding `[Cl][Pt+2][Cl].[NH-]C(c1ccc(Cl)cc1)C([NH-])c1ccc(Cl)cc1` (centres undefined), the T/C (dose: 6.25 mg/kg/injection, schedule: Q04DX002 (ip), vehicle: saline with Tween-80) was 124 % of control.

Consider `COC1=CC(=O)C(C#CCOCc2ccccc2)=CC1=O`, for which the T/C is 100 % of control (dose: 7.5 mg/kg/injection, schedule: Q01DX005 (ip), vehicle: Klucel (hydroxypropylcellulose) (HPC)); 102 % of control (dose: 15.0 mg/kg/injection, schedule: Q01DX005 (ip), vehicle: Klucel (hydroxypropylcellulose) (HPC)); 105 % of control (dose: 30.0 mg/kg/injection, schedule: Q01DX005 (ip), vehicle: Klucel (hydroxypropylcellulose) (HPC)).

For `c1ccc(NC2=NCCO2)nc1`, the T/C runs as follows: (dose: 50.0 mg/kg/injection, schedule: Q04DX003 (ip), vehicle: saline with Tween-80) 100 % of control; (dose: 100.0 mg/kg/injection, schedule: Q04DX003 (ip), vehicle: saline with Tween-80) 95 % of control; (dose: 200.0 mg/kg/injection, schedule: Q04DX003 (ip), vehicle: saline with Tween-80) 100 % of control.

As to `NC(CCCNc1ccc(O)cc1)C(=O)O` (centres undefined), the T/C is, setting by setting: under setting [8], 100 % of control; under setting [10], 99 % of control and 104 % of control; under setting [11], 98 % of control.

On to `CCCCCCCCCCC[CH2][Sn]([CH3])([CH3])[O]C(C)=O`, for which the T/C is 99 % of control (dose: 12.5 mg/kg/injection, schedule: Q01DX009 (ip), vehicle: saline); 99 % of control under setting [12]; 94 % of control (dose: 50.0 mg/kg/injection, schedule: Q01DX009 (ip), vehicle: saline).

Turning to `O=C(c1ccccc1)c1cnc2ccccc2c1`, the T/C by setting is: under setting [7], 101 % of control; under setting [9], 101 % of control; (dose: 200.0 mg/kg/injection, schedule: Q01DX005 (ip), vehicle: Klucel (hydroxypropylcellulose) (HPC)) 104 % of control.

As to `CC(N)CCc1ccccc1` (centres undefined), the T/C reads like this: (dose: 12.5 mg/kg/injection, schedule: Q01DX009 (ip), vehicle: saline sonified) 100 % of control; (dose: 25.0 mg/kg/injection, schedule: Q01DX009 (ip), vehicle: saline sonified) 100 % of control; (dose: 50.0 mg/kg/injection, schedule: Q01DX009 (ip), vehicle: saline sonified) 100 % of control.

For the compound `COc1cc(N(CCCl)CCCl)c(OC)cc1C=Nc1ccccc1C(=O)O`, the T/C is 114 % of control (dose: 3.12 mg/kg/injection, schedule: Q01DX009 (ip), vehicle: suspension in saline) and 182 % of control under setting [12].

Regarding `CN(C)CCn1c2ccccc2c2cc([N+](=O)[O-])ccc21`, the T/C by setting is: under setting [4], 102 % of control; under setting [5], 105 % of control; under setting [6], 108 % of control.

As to `CCCCCCCCCCCCCCCC(=O)N(CCCN)C(C)(C)CCC(C)(C)N(CCCN)C(=O)CCCCCCCCCCCCCCC`, the T/C runs as follows: (dose: 1.56 mg/kg/injection, schedule: Q01DX009 (ip), vehicle: water) 101 % of control; (dose: 3.13 mg/kg/injection, schedule: Q01DX009 (ip), vehicle: water) 107 % of control; (dose: 6.25 mg/kg/injection, schedule: Q01DX009 (ip), vehicle: water) 114 % of control; (dose: 12.5 mg/kg/injection, schedule: Q01DX009 (ip), vehicle: water) 113 % of control; (dose: 25.0 mg/kg/injection, schedule: Q01DX009 (ip), vehicle: water) 93 % of control.

(Values after PubChem BioAssay AID330 (DTP/NCI, 2004).)
